{
  "source": "patent US9920373B2",
  "about": "“Biomarkers of response to proteasome inhibitors” (MILLENNIUM PHARMACEUTICALS, INC., priority 2011, dated 2018)",
  "origin": "cited, not measured here",
  "conditions": "upon exposure to aqueous solutions or plasma; cited from earlier work",
  "data": [
    {"smiles": "CC(C)C[C@H](NC(=O)CNC(=O)c1cc(Cl)ccc1Cl)B1OC(=O)C(CC(=O)O)(CC(=O)O)O1", "note": "[MLN9708, 2,2′-{2-[(1R)-1-({[(2,5dichlorobenzoyl)amino]acetyl}amino)-3-methylbutyl]-5-oxo-1,3,2-dioxaborolane-4,4-diyl}diacetic acid]", "values": [
      {"measurement": "hydrolysis to the biologically active form", "result": "immediately hydrolyzes to MLN2238"}
    ]}
  ]
}
